Source: US20200131196A1 (Mount Tam Therapeutics, Inc., priority 2017, published 2020)

Tests used:
[1] = system: T24; assay: OncoPanel cell proliferation assay, T24; assay type: cell-based, human; conditions: for GI50: T-24, read-out: Cell Count GI50
Description: (§1) Cells were grown in RPMI 1640, 10% FBS, 2 mM L-alanyl-L-glutamine, 1 mM Na pyruvate, or a special medium. Cells were seeded into 384-well plates and incubated in a humidified atmosphere of 5% CO2 at 37° C. Compounds were added the day following cell seeding. At the same time, a time zero untreated cell plate was generated. After a 3-day incubation period, cells were fixed and stained to allow fluorescence imaging of nuclei. Compounds (1 mM stock solutions) were serially diluted in half-log steps from the highest test concentration ([…]), and assayed over 10 concentrations with a maximum assay concentration of 0.1% DMSO. Automated fluorescence microscopy was carried out using a Molecular Devices ImageXpress Micro XL high-content imager, and images were collected with a 4× objective. 16-bit TIFF images were acquired and analyzed with MetaXpress 5.1.0.41 software.
(§2) Cell proliferation was measured by the fluorescence intensity of an incorporated nuclear dye. The output is referred to as the relative cell count, where the measured nuclear intensity is transformed to percent of control (POC) using the following formula: […]
(§3) Cellular response parameters were calculated using nonlinear regression to a sigmoidal single-site dose response model:
(§4) EC50 is the test compound concentration at the curve inflection point or half the effective response (parameter C of the fitted curve solution). GI50 is the concentration needed to reduce the observed growth by half (midway between the curve maximum and the time zero value). “Cell Count Activity Area” is an estimate of the integrated area above the curve (Barretina, et al. The Cancer Cell Line Encyclopedia enables predictive modelling of anticancer drug sensitivity. Nature 483: 603-607). […] In rare instances, values <0 or >10 may be observed. […] Curve-fitting, calculations, and report generation was performed using a custom data reduction engine and MathIQ based software (AIM).

[2] = system: MES-SA; assay: OncoPanel cell proliferation assay, MES-SA; assay type: cell-based, human; conditions: for GI50: read-out: Cell Count GI50
Description: as §1, §2, §3, §4

[3] = system: SHP-77; assay: OncoPanel cell proliferation assay, SHP-77; conditions: for EC50 / GI50 / IC50: Homo sapiens; for EC50: SHP77, read-out: Cell Count EC50; for GI50: SHP77, read-out: Cell Count GI50; for IC50: SHP77, read-out: Cell Count IC50; for Cell Count Activity Area: SHP-77
Description: (§5) Cells were seeded into 384-well plates and incubated in a humidified atmosphere of 5% CO2 at 37° C. Compounds were added the day following cell seeding. At the same time, a time zero untreated cell plate was generated. After a 3-day incubation period, cells were fixed and stained to allow fluorescence imaging of nuclei. Compounds (1 mM stock solutions) were serially diluted in half-log steps from the highest test concentration (1 micromol), and assayed over 10 concentrations with a maximum assay concentration of 0.1% DMSO. Automated fluorescence microscopy was carried out using a Molecular Devices ImageXpress Micro XL high-content imager, and images were collected with a 4× objective. 16-bit TIFF images were acquired and analyzed with MetaXpress 5.1.0.41 software.
(§6) GI50 is the concentration needed to reduce the observed growth by half (midway between the curve maximum and the time zero value). […] In rare instances, values <0 or >10 may be observed. […] Curve-fitting, calculations, and report generation was performed using a custom data reduction engine and MathIQ based software (AIM).

[4] = system: A101D; assay: OncoPanel cell proliferation assay, A101D; assay type: cell-based, human; conditions: for EC50: read-out: Cell Count EC50; for GI50: read-out: Cell Count GI50
Description: as §1, §2, §3, §4

[5] = system: Hs 852.T; assay: OncoPanel cell proliferation assay, Hs 852.T; assay type: cell-based, human; conditions: for GI50: read-out: Cell Count GI50
Description: as §1, §2, §3, §4

[6] = system: CRO-AP2; assay: OncoPanel cell proliferation assay, CRO-AP2; assay type: cell-based, human; conditions: for GI50: read-out: Cell Count GI50
Description: as §1, §2, §3, §4

[7] = system: G-402; assay: OncoPanel cell proliferation assay, G-402; assay type: cell-based, human; conditions: for GI50: read-out: Cell Count GI50
Description: as §1, §2, §3, §4

[8] = system: SNU-C2B; assay: OncoPanel cell proliferation assay, SNU-C2B; assay type: cell-based, human; conditions: for EC50: read-out: Cell Count EC50; for GI50: read-out: Cell Count GI50
Description: as §1, §2, §3, §4

[9] = system: AsPC-1; assay: OncoPanel cell proliferation assay, AsPC-1; conditions: for Cell Count Activity Area: AsPC-1
Description: as §5, §6

[10] = system: CML-T1; assay: OncoPanel cell proliferation assay, CML-T1; assay type: cell-based, human; conditions: for EC50: read-out: Cell Count EC50; for GI50: read-out: Cell Count GI50
Description: as §1, §2, §3, §4

[11] = system: 786-O; assay: OncoPanel cell proliferation assay, 786-O; assay type: cell-based, human; conditions: 786-O; for EC50: read-out: Cell Count EC50; for GI50: read-out: Cell Count GI50
Description: as §1, §2, §3, §4

[12] = system: SK-N-AS; assay: OncoPanel cell proliferation assay, SK-N-AS; assay type: cell-based, human; conditions: for EC50: read-out: Cell Count EC50; for GI50: read-out: Cell Count GI50
Description: as §1, §2, §3, §4

[13] = Homo sapiens, read-out: Cell Count EC50
[14] = Homo sapiens, read-out: Cell Count IC50

## CN[C@@H]1C[C@H]2O[C@@](C)([C@@H]1OC)n1c3ccccc3c3c4c(c5c6ccccc6n2c5c31)C(=O)NC4 [Staurosporine, reference compound]
[1]
  Cell Count Activity Area: 5.96
[1]; Homo sapiens
  GI50: 0.829 nM
[2]
  Cell Count Activity Area: 2.80
[2]; Homo sapiens
  GI50: 13 nM
[3]
  EC50: 28.1 nM
  GI50: 24.2 nM
  IC50: 30.8 nM
  Cell Count Activity Area: 3.16
[4]
  Cell Count Activity Area: 4.56
[4]; Homo sapiens
  EC50: 7.02 nM
  GI50: 2.65 nM
[5]
  Cell Count Activity Area: 3.16
[5]; Homo sapiens
  GI50: 1.35 nM
[6]
  Cell Count Activity Area: 3.99
[6]; Homo sapiens
  GI50: 13.2 nM
[7]
  Cell Count Activity Area: 5.93
[7]; Homo sapiens
  GI50: 0.664 nM
[8]
  Cell Count Activity Area: 3.80
[8]; Homo sapiens
  EC50: 15.8 nM
  GI50: 4.97 nM
[9]
  Cell Count Activity Area: 3.28
[10]
  Cell Count Activity Area: 4.13
[10]; Homo sapiens
  EC50: 7.06 nM
  GI50: 6.96 nM
[11]
  Cell Count Activity Area: 4.87
[11]; Homo sapiens, 786-0
  EC50: 3.58 nM
  GI50: 3.41 nM
[12]
  Cell Count Activity Area: 4.83
[12]; Homo sapiens
  EC50: 1.7 nM
  GI50: 1.27 nM

## CO[C@H]1C[C@@H]2CC[C@@H](C)[C@@](O)(O2)C(=O)C(=O)N2CCCC[C@H]2C(=O)O[C@H]([C@H](C)C[C@@H]2CC[C@@H](O)[C@H](OC)C2)CC(=O)[C@H](C)/C=C(\C)[C@@H](O)[C@@H](OC)C(=O)[C@H](C)C[C@H](C)/C=C/C=C/C=C/1C [Rapamycin, reference compound]
[1]
  Cell Count Activity Area: 4.39
[1]; Homo sapiens, T-24, read-out: Cell Count EC50
  EC50: 0.0783 nM
[1]; Homo sapiens
  GI50: 0.474 nM
[1]; Homo sapiens, T-24, read-out: Cell Count IC50
  IC50: 2.1 nM
[2]
  Cell Count Activity Area: 5.39
[2]; [13]
  EC50: 0.174 nM
[2]; Homo sapiens
  GI50: 0.294 nM
[2]; [14]
  IC50: 0.415 nM
[3]
  EC50: > 1000 nM
  GI50: > 1000 nM
  IC50: > 1000 nM
  Cell Count Activity Area: 1.13
[4]
  Cell Count Activity Area: 2.92
[4]; Homo sapiens
  EC50: 0.184 nM
  GI50: 0.721 nM
[4]; [14]
  IC50: > 1000 nM
[5]
  Cell Count Activity Area: 1.43
[5]; [13]
  EC50: > 1000 nM
[5]; Homo sapiens
  GI50: > 1000 nM
[5]; [14]
  IC50: > 1000 nM
[6]
  Cell Count Activity Area: 6.22
[6]; [13]
  EC50: 0.119 nM
[6]; Homo sapiens
  GI50: 0.155 nM
[6]; [14]
  IC50: 0.187 nM
[7]
  Cell Count Activity Area: 4.68
[7]; [13]
  EC50: 0.111 nM
[7]; Homo sapiens
  GI50: 0.182 nM
[7]; [14]
  IC50: 0.334 nM
[8]
  Cell Count Activity Area: 1.99
[8]; Homo sapiens
  EC50: > 1000 nM
  GI50: > 1000 nM
[8]; [14]
  IC50: > 1000 nM
[9]
  Cell Count Activity Area: 1.48
[9]; Homo sapiens, ASPC1, read-out: Cell Count EC50
  EC50: > 1000 nM
[9]; Homo sapiens, ASPC1, read-out: Cell Count GI50
  GI50: > 1000 nM
[9]; Homo sapiens, ASPC1, read-out: Cell Count IC50
  IC50: > 1000 nM
[10]
  Cell Count Activity Area: 4.56
[10]; Homo sapiens
  EC50: 0.189 nM
  GI50: 0.694 nM
[10]; [14]
  IC50: 1.93 nM
[11]
  Cell Count Activity Area: 4.17
[11]; Homo sapiens, 786-0
  EC50: 0.227 nM
  GI50: 1.13 nM
[11]; Homo sapiens, 786-0, read-out: Cell Count IC50
  IC50: 3.18 nM
[12]
  Cell Count Activity Area: 3.58
[12]; Homo sapiens
  EC50: 0.231 nM
  GI50: 0.432 nM
[12]; [14]
  IC50: > 1000 nM
